# Measurements taken from patent US12622894B2, “Pharmaceutical compositions and intravitreal drug delivery systems for the treatment of ocular diseases” (Perfuse Therapeutics, Inc., priority 2021, dated 2026).
# How the values were obtained:
# [1] = cited from earlier work
# [2] = Slurry conversion of crystalline forms in isopropanol and water, XRPD analysis; format: physicochemical
# Procedure: In an alternate method, 150 mg of Edonentan (Form 3) was added to a mixture of isopropanol and water (1 mL and 2 mL, respectively). The resulting slurry was stirred at 15° C. for 48 hours and then filtered.
# In an alternate method, 200 mg of Edonentan (Form 1) was added to a mixture of isopropanol and water (1.3 mL and 2.6 mL, respectively). The resulting solution was heated to 80° C. and stirred for 24 h, then cooled and filtered.
# [3] = pH 7.4 in 2 mg/mL melanin solution; cited from earlier work
# [4] = In vitro melanin binding assay with synthetic melanin; details: 200 μM; melanin 1 mg/mL
# Procedure: A concentration of 200 μM chloroquine was used as a positive control.
smiles,measurement,setting,value
"Cc1onc(NS(=O)(=O)c2ccccc2-c2ccc(-c3ncco3)cc2CN(C)C(=O)CC(C)(C)C)c1C [Edonentan, N-[[2′-[[(4,5-dimethyl-3-isoxazolyl)amino]sulfonyl]-4-(2-oxazolyl)[1,1′-biphenyl]-2-yl]methyl]-N,3,3-trimethylbutanamide]",oral Tmax,[1],24 min
Cc1onc(NS(=O)(=O)c2ccccc2-c2ccc(-c3ncco3)cc2CN(C)C(=O)CC(C)(C)C)c1C [Form 1],Solubility pH 7.0 Phosphate Buffer,,264 μg/mL
Cc1onc(NS(=O)(=O)c2ccccc2-c2ccc(-c3ncco3)cc2CN(C)C(=O)CC(C)(C)C)c1C [Form 2],Solubility pH 7.0 Phosphate Buffer,,35 μg/mL
Cc1onc(NS(=O)(=O)c2ccccc2-c2ccc(-c3ncco3)cc2CN(C)C(=O)CC(C)(C)C)c1C [Form 3],Solubility pH 7.0 Phosphate Buffer,,251 μg/mL
Cc1onc(NS(=O)(=O)c2ccccc2-c2ccc(-c3ncco3)cc2CN(C)C(=O)CC(C)(C)C)c1C [Form 4],relative thermodynamic stability of crystalline forms,"[2]; Form 1 in isopropanol and water, 80° C., 24 h",more thermodynamically stable than Form 1
same,relative thermodynamic stability of crystalline forms,"[2]; slurry of Form 3 in isopropanol and water, 15° C., 48 hours",more thermodynamically stable than Form 3
CCN(CC)CCCC(C)Nc1ccnc2cc(Cl)ccc12 (centres unmarked) [chloroquine],"bound to melanin, literature values",[3],92-99.6 % bound
same,binding to melanin (% bound),[4],99.5 % bound
